This assay addresses T1, partially purified human renin (Homo sapiens, UniProt P00797).
T1 sequence (P00797 67-406): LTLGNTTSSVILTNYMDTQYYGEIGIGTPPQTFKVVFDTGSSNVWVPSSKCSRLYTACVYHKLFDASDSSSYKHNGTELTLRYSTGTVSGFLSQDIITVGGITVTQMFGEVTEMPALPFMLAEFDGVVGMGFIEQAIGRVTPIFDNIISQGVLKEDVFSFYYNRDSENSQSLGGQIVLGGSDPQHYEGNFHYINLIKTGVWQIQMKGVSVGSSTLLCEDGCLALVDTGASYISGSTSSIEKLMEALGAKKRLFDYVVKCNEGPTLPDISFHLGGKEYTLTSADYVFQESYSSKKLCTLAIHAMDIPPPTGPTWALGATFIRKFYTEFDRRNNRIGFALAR
The experiment in a line: in vitro inhibition of renin-catalysed angiotensin I generation (radioimmunoassay). In kind it is biochemical. As to conditions: human renin with angiotensinogen; angiotensin I by radioimmunoassay; read-out: IC50 (concentration for 50% inhibition of the renin catalysed reaction). As to the method: The inhibition of the catalytic activity of renin, and in particular of human renin, may be assessed in vitro using a routine laboratory procedure involving the incubation of a test compound initially at a concentration of 100 micromolar in a buffered mixture containing appropriate concentrations of partially purified human renin and the natural renin substrate angiotensinogen. The formation of the angiotensin known as angiotensin I (which is assayed by a standard radioimmunoassay using procedures well known in the art) is inhibited by those compounds which inhibit the action of renin and the degree of inhibition is readily determined by comparing the angiotensin I generation rate in the presence of the test compound (at the specified test concentration) with the control rate of angiotensin I generation in the absence of the test compound.
In this standard test procedure, compounds which show at least 30% inhibition are retested at lower concentrations to determine their inhibitory potency. For determination of the IC50 (concentration for 50% inhibition of the renin catalysed reaction), concentrations are ordinarily chosen to allow testing over at least four orders of magnitude centred about the predicted approximate IC50, which latter is subsequently determined from a plot of percentage inhibition against concentration of the test compound. […]

As to `CCCCNC(=O)[C@@H](C[C@H](O)[C@H](CC1CCCCC1)NC(=O)C(Cc1cccnc1)c1nnc2c(CCC)nc(-c3cccnc3)cn12)C(C)C` (mixture of isomers) [Example 6, (2S,4S,5S)-N-butyl-6-cyclohexyl-4-hydroxy-2-isopropyl-5-[(2RS)-2-(8-propyl-6-(3-pyridyl)-1,2,4-triazolo[4,3-a]pyrazin-3-yl)-3-(3-pyridyl)propionamido]hexanamide], the IC50 was found to be 0.2 nM.

These data come from US5091425A, “5-(heterocyclylalkanoyl)amino-4-hydroxypentanamides” (Imperial Chemical Industries plc, priority 1988, dated 1992).
